Our source for the relative viability values is the supplement of paper PMC10307832.

What all share (experiment): relative viability (nuclei count vs DMSO), 5 days (fraction); higher = more cells survive
Compound in the assay “Bortezomib + Alpelisib”: CC(C)C[C@H](NC(=O)[C@H](Cc1ccccc1)NC(=O)c1cnccn1)B(O)O [Bortezomib] + Cc1nc(NC(=O)N2CCC[C@H]2C(N)=O)sc1-c1ccnc(C(C)(C)C(F)(F)F)c1 [Alpelisib] (partner 2 µM)
Put shortly: (§1)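 After 5 days of treatment, lung cancer cells in 1536-well plates were fixed and stained in a single step (final 0.05% Triton X-100, 1% formaldehyde, 1 ug/ml Hoechst) and their nuclei counted on 4× images. Treatment had been applied by pin tool the day after seeding as one drug alone or as a fixed anchor-drug dose with five library-drug doses (not always all listed) in √10 steps. Relative viability is the nuclei count of treated wells divided by that of vehicle wells, and values are medians of duplicate plates.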

Compound in assay [1]: CC1=CC(=NN1)NC2=CC(=NC(=N2)/C=C/C3=CC=CC=C3)N4CCN(CC4)C + COc1cc2c(Oc3ccc(NC(=O)C4(C(=O)Nc5ccc(F)cc5)CC4)cc3F)ccnc2cc1OCCCN1CCOCC1 [Foretinib] (partner 0.25 µM)
Put shortly:
as §1

Compound in the assay “Obatoclax + Trametinib”: COC1=CC(c2cc3ccccc3[nH]2)=N/C1=C\c1[nH]c(C)cc1C [Obatoclax] + CC(=O)Nc1cccc(-n2c(=O)n(C3CC3)c(=O)c3c(Nc4ccc(I)cc4F)n(C)c(=O)c(C)c32)c1 [Trametinib] (partner 0.02 µM)
The method in brief:
as §1

Compound in the assay “Obatoclax + Alpelisib”: COC1=CC(c2cc3ccccc3[nH]2)=N/C1=C\c1[nH]c(C)cc1C [Obatoclax] + Cc1nc(NC(=O)N2CCC[C@H]2C(N)=O)sc1-c1ccnc(C(C)(C)C(F)(F)F)c1 [Alpelisib] (partner 2 µM)
Put shortly:
as §1

NCI-H650: the relative viability with Bortezomib + Alpelisib (first compound 0.000632 µM) came to 1.18; with Bortezomib + Alpelisib (first compound 0.002 µM), 0.819; with Bortezomib + Alpelisib (first compound 0.006325 µM), 0.355; with Bortezomib + Alpelisib (first compound 0.02 µM), 0.182; in assay [1] (first compound 0.253 µM), 1.14; in assay [1] (first compound 0.8 µM), 1.01. For the same cell line, the relative viability in assay [1] (first compound 2.53 µM) stood at 0.923; in assay [1] (first compound 8 µM) it was 0.255; with Obatoclax + Trametinib (first compound 0.01 µM) it was 0.888; with Obatoclax + Trametinib (first compound 0.03162 µM), 1.02; with Obatoclax + Trametinib (first compound 0.3162 µM), 0.373; with Obatoclax + Trametinib (first compound 1 µM) it was 0.625. The relative viability was 0.975 in the assay with Obatoclax + Alpelisib (first compound 0.01 µM); 1.1 with Obatoclax + Alpelisib (first compound 0.03162 µM); 0.811 with Obatoclax + Alpelisib (first compound 0.1 µM); 0.693 in the assay with Obatoclax + Alpelisib (first compound 0.3162 µM); 0.446 in the assay with Obatoclax + Alpelisib (first compound 1 µM).
